We go through 4 compounds from PMC10377034, “Syntheses of 25-Adamantyl-25-alkyl-2-methylidene-1α,25-dihydroxyvitamin D3 Derivatives with Structure–Function Studies of Antagonistic and Agonistic Active Vitamin D Analogs” (Biomolecules, 2023).

Where two headings read alike, the source gives them in different places.

The target in experiment [1] is T1, recombinant hVDR-LBD (Homo sapiens, UniProt P11473).
T1 sequence (P11473 140-427): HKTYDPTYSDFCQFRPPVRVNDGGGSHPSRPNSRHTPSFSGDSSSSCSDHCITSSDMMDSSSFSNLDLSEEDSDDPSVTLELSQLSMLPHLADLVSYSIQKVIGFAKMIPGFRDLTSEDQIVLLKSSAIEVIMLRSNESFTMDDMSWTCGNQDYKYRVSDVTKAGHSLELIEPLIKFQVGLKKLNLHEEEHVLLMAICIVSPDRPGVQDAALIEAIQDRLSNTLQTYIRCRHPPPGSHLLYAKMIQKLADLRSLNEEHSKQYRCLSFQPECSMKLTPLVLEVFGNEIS
The experiment in a line: biochemical.
Experimental: (§1) The pGEX-hVDR and pGEX were expressed for a GST-VDR fusion protein and a control GST protein, respectively, in Escherichia coli BL21 (Merck, Darmstadt, Germany). The bacteria were lysed by sonication in a sonication buffer (50 mM Tris-HCl, pH 8.0, 50 mM NaCl, 1 mM EDTA, and 1 mM DTT). The supernatant proteins (1 μg) were diluted in a binding buffer (25 mM Tris, pH 7.5, 100 mM KCl, 25 mM DTT, 4 mM CHAPS, pH 7.5) containing bovine serum albumin (100 μg/mL). A solution containing each test compound in 15 μL of EtOH was added to 570 μL of the GST protein solution in each tube. After being vortexed 2–3 times, the mixture was incubated for 30 min at room temperature. […] After being vortexed 2–3 times, the whole mixture was allowed to stand at 4 °C for 20 h, and 400 μL of dextran-coated charcoal solution (Sigma) was added to remove free ligands.
(§2) All values represent the means, and error bars are the standard deviations derived from triplicate assays.

Experiment [2] concerns the target T1, recombinant hVDR-LBD. Conditions: for fold lower activity of rapidly eluting epimer than the other 25-epimer: affinity for human VDR, within each 25-epimer pair; for VDR affinity, % of that of 1,25(OH)2D3: relative to 1,25(OH)2D3.
Experimental: as §1, §2
The next experiment addresses T2, VDR with SRC-1 (Homo sapiens, UniProt P11473).
T2 sequence (P11473 1-427): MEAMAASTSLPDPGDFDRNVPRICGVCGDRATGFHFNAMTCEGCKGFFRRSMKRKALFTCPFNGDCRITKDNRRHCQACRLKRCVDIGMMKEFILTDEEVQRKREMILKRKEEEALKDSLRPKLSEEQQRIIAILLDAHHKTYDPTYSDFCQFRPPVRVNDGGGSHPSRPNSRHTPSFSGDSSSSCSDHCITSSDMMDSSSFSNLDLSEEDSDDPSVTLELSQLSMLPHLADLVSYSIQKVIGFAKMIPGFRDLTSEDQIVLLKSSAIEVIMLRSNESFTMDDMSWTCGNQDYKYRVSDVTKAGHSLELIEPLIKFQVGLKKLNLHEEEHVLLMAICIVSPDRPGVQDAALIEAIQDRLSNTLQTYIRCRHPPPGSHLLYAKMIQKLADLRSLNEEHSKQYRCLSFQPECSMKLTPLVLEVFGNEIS
T2 sequence (Q15788 595-771 partner limits assumed): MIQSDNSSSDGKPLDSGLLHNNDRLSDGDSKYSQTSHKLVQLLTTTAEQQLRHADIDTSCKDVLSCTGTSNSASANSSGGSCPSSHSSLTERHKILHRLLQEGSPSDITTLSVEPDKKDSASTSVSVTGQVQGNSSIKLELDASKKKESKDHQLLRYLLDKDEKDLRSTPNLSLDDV
The experiment in a line: Mammalian two-hybrid assay, VDR binding to SRC-1.

A further experiment has as its target T3, hVDR (Homo sapiens, UniProt P11473).
T3 construct: expressed in transfected cells; host or cells: HEK293
T3 sequence (P11473 1-427): T2 sequence (P11473 1-427)
The experiment in a line: VDR transactivation luciferase reporter assay in HEK293 cells (SPP×3-tk-LUC). To be noted: for Transcriptional activity efficacy: 1,25(OH)2D3 = 100%; for Emax: read-out: Transcriptional Activity % Efficacy of That of 1 (converted). Format: cell-based. The method, then:
The transcriptional activity of the 25-alkylvitamin D analogs on the VDR was evaluated via a luciferase reporter assay in HEK293 human kidney cells transfected with an hVDR expression vector and a luciferase reporter with mouse osteopontin vitamin D response elements (VDREs, SPP×3-tk-LUC).
Transfections of 50 ng of TK-Spp × 3-LUC reporter plasmid, 10 ng of pCMX-β-galactosidase, and 15 ng of pCMX-VDR for each well of a 96-well plate were performed in HEK293 cells using the calcium phosphate coprecipitation method, as described previously. The mammalian two-hybrid assay for cofactor interaction with VDR used 50 ng of TK-MH100(UAS) × 3- LUC reporter plasmid, 10 ng of pCMX-β-galactosidase, 15 ng of pCMX-GAL4-RXRα, pCMX-GAL4-SRC1, or pCMX-GAL4-NCoR, and 15 ng of pCMX-VP16-VDR for each well of a 96-well plate. Luciferase and β-galactosidase activities were measured with a luminometer and a microplate reader (Molecular Devices, Sun Jose, CA, USA), respectively. Luciferase values were normalized to the internal β-galactosidase control.
HEK293 cells were co-transfected with TK-Spp × 3-LUC reporter plasmid and pCMX−VDR, and 8 h after transfection the cells were treated with several concentrations of each compound. After 24 h, the cells were harvested for assaying luciferase and β-galactosidase activity using a luminometer (Molecular Devices, Sunnyvale, CA, USA).
In general terms: Reporter assays use an easily measured gene product as a stand-in for the process of interest.

Experiment [3] deals with CYP24A1 expression in all cells (HEK293, SW480, U937, HaCaT, MG63, H292). The experiment in a line: CYP24A1 expression (RT-qPCR), all cells tested. To be noted: 100 nM, 24 h. In general terms: Quantitative PCR measures a nucleic acid by following its amplification.
Experimental: (§3) HEK293 human kidney cells (RIKEN Cell Bank, Tsukuba, Japan) were cultured in Dulbecco’s modified Eagle’s medium (DMEM) (Fujifilm Wako Pure Chemical Corporation, Tokyo, Japan) containing 5% fetal bovine serum (FBS), 100 U/mL penicillin, and 0.1 mg/mL streptomycin (Nacalai Tesque, Kyoto, Japan). SW480 human colon carcinoma cells (American Type Culture Collection, Manassas, VA) and HaCaT immortalized keratinocyte cells (kindly provided by Dr. Tadashi Terui, Department of Dermatology, Nihon University School of Medicine) were cultured in DMEM containing 10% FBS, 100 U/mL penicillin, and 0.1 mg/mL streptomycin. MG63 human osteosarcoma cells (RIKEN Cell Bank) and lung-derived H292 cells (American Type Culture Collection) were cultured in minimum essential medium containing 10% FBS, 100 U/mL penicillin, and 0.1 mg/mL streptomycin. […] All cells were cultured at 37 °C in a humidified atmosphere containing 5% CO2.
(§4) For gene expression analysis, 1 × 10^4 cells per well were plated in a 24-well plate. After 24 h, the cells were treated with an ethanol control or 100 nM of each test compound for 24 h. […] Real-time PCR was performed on the ABI PRISM 7000 sequence detection system (Thermo Fisher Scientific, Waltham, MA, USA) using Power SYBR Green PCR master mix (Thermo Fisher Scientific).
The subject of experiment [4] is human dedifferentiated fat (DFAT) cells. The experiment in a line: Osteogenic differentiation assay: ALP activity in human DFAT cells. Conditions: osteogenic medium, 100 nM, 7 days, natural hormone 1 = 100%. Format: cell-based. As for the experimental part: Mature adipocytes from the adipose tissue of mammals such as humans and rodents can be dedifferentiated into pluripotent cells using ceiling culture. Dedifferentiated fat (DFAT) cells have potential applications in both regenerative medicine and injury healing, as well as mesenchymal stem cells, embryonic stem cells, and induced pluripotent stem cells. The osteogenic activity of vitamin D derivatives was assessed based on alkaline phosphatase (ALP) activity.
Samples of human subcutaneous adipose tissue were obtained from patients who underwent surgery in the Department of Pediatric Surgery at Nihon University Itabashi Hospital (Tokyo, Japan). The patients gave their written informed consent, and the Ethics Committee of Nihon University School of Medicine approved this study. We prepared dedifferentiated fat (DFAT) cells using the ceiling culture method, as described previously. Briefly, the adipose tissue (approximately 1 g) was cut into small pieces and digested with a 0.1% type I collagenase solution (Koken Co., Ltd., Tokyo, Japan). […] The cells that adhered to the upper surface of the flasks were cultured for conversion to dedifferentiated fat cells. […] Cells at passages 2–4 were used for differentiation experiments.
Cells were grown to confluency in 24-well plates and incubated for a week in DMEM containing 10% FBS, 100 nM dexamethasone (Merk), 10 mM β-glycerophosphate (Merk), and […] L-ascorbic acid-2-phosphate (Merk), with 100 nM of each compound. The induction medium was replaced on day 4. The alkaline phosphatase (ALP) activity in the cell lysates was determined on day 7 with a lab assay ALP kit (Fujifilm wako). The total protein content was determined with the BCA protein assay kit (Thermo Fisher Scientific). ALP levels were normalized to the total protein content.

Another experiment deals with T4, VDR with RXRα (Homo sapiens, UniProt P11473).
T4 sequence (P11473 1-427): T2 sequence (P11473 1-427)
T4 sequence (P19793 1-462 partner): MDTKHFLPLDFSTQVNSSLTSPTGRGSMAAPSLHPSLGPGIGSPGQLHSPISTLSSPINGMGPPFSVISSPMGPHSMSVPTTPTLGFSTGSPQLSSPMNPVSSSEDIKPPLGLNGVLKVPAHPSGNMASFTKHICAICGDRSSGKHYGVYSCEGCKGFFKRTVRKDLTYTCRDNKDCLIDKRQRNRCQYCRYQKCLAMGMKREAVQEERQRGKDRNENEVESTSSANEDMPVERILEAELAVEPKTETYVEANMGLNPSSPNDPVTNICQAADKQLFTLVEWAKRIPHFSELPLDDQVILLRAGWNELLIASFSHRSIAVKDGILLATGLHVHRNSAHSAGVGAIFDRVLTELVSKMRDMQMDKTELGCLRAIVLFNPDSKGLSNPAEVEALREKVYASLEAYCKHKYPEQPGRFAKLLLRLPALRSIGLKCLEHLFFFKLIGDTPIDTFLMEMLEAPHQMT
The experiment in a line: Mammalian two-hybrid assay, interaction of the VDR with RXRα.

In the next experiment the target is T5, VDR with NCoR (Homo sapiens, UniProt P11473).
T5 sequence (P11473 1-427): T2 sequence (P11473 1-427)
The experiment in a line: Mammalian two-hybrid assay, dissociation of NCoR from the VDR.

The subject of experiment [5] is CYP24A1 expression in HEK293 cells. The experiment in a line: CYP24A1 expression (RT-qPCR) in HEK293 cells. To be noted: HEK293 kidney cells, 100 nM, 24 h.
Experimental: as §3, §4
In experiment [6] the test system is CYP24A1 expression in H292 cells. The experiment in a line: CYP24A1 expression (RT-qPCR) in H292 cells. Conditions: H292 lung cells, 100 nM, 24 h.
Experimental: as §3, §4
Experiment [7] concerns CYP24A1 expression in MG63 cells. The experiment in a line: CYP24A1 expression (RT-qPCR) in MG63 cells. To be noted: MG63 bone cells, 100 nM, 24 h.
Experimental: as §3, §4
Experiment [8] concerns CYP24A1 expression in SW480 cells. The experiment in a line: CYP24A1 expression (RT-qPCR) in SW480 cells. To be noted: SW480 intestine cells, 100 nM, 24 h.
Experimental: as §3, §4
The test system of experiment [9] is CYP24A1 expression in U937 cells. The experiment in a line: CYP24A1 expression (RT-qPCR) in U937 cells. To be noted: U937 blood cells, 100 nM, 24 h.
Experimental: (§5) SW480 human colon carcinoma cells (American Type Culture Collection, Manassas, VA) and HaCaT immortalized keratinocyte cells (kindly provided by Dr. Tadashi Terui, Department of Dermatology, Nihon University School of Medicine) were cultured in DMEM containing 10% FBS, 100 U/mL penicillin, and 0.1 mg/mL streptomycin. […] All cells were cultured at 37 °C in a humidified atmosphere containing 5% CO2.
(§6) For gene expression analysis, 1 × 10^4 cells per well were plated in a 24-well plate. After 24 h, the cells were treated with an ethanol control or 100 nM of each test compound for 24 h. The total RNAs from the samples were extracted using the acid guanidine thiocyanate phenol/chloroform method [57], and cDNAs were synthesized using the ImProm-II reverse transcription system (Promega, Madison, WI) [43]. Real-time PCR was performed on the ABI PRISM 7000 sequence detection system (Thermo Fisher Scientific, Waltham, MA, USA) using Power SYBR Green PCR master mix (Thermo Fisher Scientific).
(§7) One-way ANOVA followed by Turkey’s multiple comparisons: ※ p < 0.05, ※※ p < 0.01, ※※※ p < 0.001 versus vehicle control.
The subject of experiment [10] is CYP24A1 expression in HaCaT cells. The experiment in a line: CYP24A1 expression (RT-qPCR) in HaCaT cells. To be noted: HaCaT skin cells, 100 nM, 24 h.
Experimental: as §5, §6, §7
The mark [11] stands for this setting: read-out: Transcriptional activity EC50.
The mark [12] stands for this setting: this study, read-out: Transcriptional Activity EC50.

Experimental for VDR with NCoR: (§8) We used the expression plasmids pCMX-VDR, pCMX-VP16- VDR, pCMX-GAL4-RXRα, pCMX-GAL4-SRC-1, and pCMX-GAL4- N-CoR, as reported previously [43]. […] We used luciferase reporters: VDR-responsive Sppx3-tk-LUC and GAL4-responsive MH100(UAS) × 4-tk-LUC reporters [43].
(§9) Transfections of 50 ng of TK-Spp × 3-LUC reporter plasmid, 10 ng of pCMX-β-galactosidase, and 15 ng of pCMX-VDR for each well of a 96-well plate were performed in HEK293 cells using the calcium phosphate coprecipitation method, as described previously [43]. The mammalian two-hybrid assay for cofactor interaction with VDR used 50 ng of TK-MH100(UAS) × 3- LUC reporter plasmid, 10 ng of pCMX-β-galactosidase, 15 ng of pCMX-GAL4-RXRα, pCMX-GAL4-SRC1, or pCMX-GAL4-NCoR, and 15 ng of pCMX-VP16-VDR for each well of a 96-well plate. Luciferase and β-galactosidase activities were measured with a luminometer and a microplate reader (Molecular Devices, Sun Jose, CA, USA), respectively. Luciferase values were normalized to the internal β-galactosidase control.
(§10) (B) Effects on the interactions between the VDR and SRC-1. HEK293 cells were co-transfected with CMX-GAL4-SRC-1, CMX-VP16-VDR, and MH100 (UAS) × 4-tk-LUC and were treated with each compound over a range of concentrations. (C) Effects on interactions of the VDR with NCoR-1. HEK293 cells were co-transfected with CMX-GAL4-N-CoR in combination with CMX-VP16-VDR and MH100 (UAS) × 4-tk-LUC and were treated with each compound over a range of concentrations.
Experimental for VDR with RXRα: as §8, §9, §10
Experimental for VDR with SRC-1: as §8, §9, §10

In the case of `C=C1[C@H](O)CC(=C/C=C2\CCC[C@]3(C)[C@@H]([C@H](C)CC#C[C@](C)(O)C45CC6CC(CC(C6)C4)C5)CC[C@@H]23)C[C@H]1O` [ADKM1, (25R)-25-(1-Adamantyl)-1α,25-dihydroxy-2-methylidene-23-yne-19,27-dinorvitamin D3], the results for the IC50 at recombinant hVDR-LBD [1] and on VDR with NCoR were 6.2 nM and 2.3 nM, respectively. For the same compound, on recombinant hVDR-LBD [2], the “fold lower activity of rapidly eluting epimer than the other 25-epimer” value was 5–11 fold. Also, on recombinant hVDR-LBD [2], the “VDR affinity, % of that of 1,25(OH)2D3” value is on record as 6%. In addition, the EC50 came out at 8.4 nM on VDR with SRC-1, 0.53 nM at hVDR (setting [11]), 0.5 nM at hVDR (setting [12]) and 1.1 nM at VDR with RXRα. Besides, the Transcriptional activity efficacy on hVDR is given as 78%. Also, at hVDR (this study), the Emax is 78%. Besides, the “CYP24A1 expression activity in all cells” value in experiment [3] was 10-50%. This compound displayed an ALP activity in experiment [4] of 41%.

As to `C=C1[C@H](O)CC(=C/C=C2\CCC[C@]3(C)[C@@H]([C@H](C)CC#C[C@@](C)(O)C45CC6CC(CC(C6)C4)C5)CC[C@@H]23)C[C@H]1O` [ADKM2, (25S)-25-(1-Adamantyl)-1α,25-dihydroxy-2-methylidene-23-yne-19,27-dinorvitamin D3], the IC50 at recombinant hVDR-LBD [1] was 0.6 nM; against VDR with NCoR, 0.4 nM. The “CYP24A1 expression relative to natural hormone 1” value in experiment [5] was determined as 33.2%; in [6], 50.1%; in [7], 63%; in experiment [8], 42.3%; in experiment [9] it was 77.8%; in experiment [10] it was 85.6%. Moreover, the “VDR affinity, % of that of 1,25(OH)2D3” value on recombinant hVDR-LBD [2] turned out to be 67%. For the same compound, the results for the EC50 on VDR with SRC-1, on hVDR (setting [12]) and at VDR with RXRα were 0.6 nM, 0.2 nM and 0.1 nM, respectively. Besides, the Transcriptional activity efficacy at hVDR amounted to 101%. Further, the Emax on hVDR (this study) was 101%. In experiment [4], this compound registered an ALP activity of 98.8%.

For `C=C1[C@H](O)CC(=C/C=C2\CCC[C@]3(C)[C@@H]([C@H](C)CC#C[C@@](O)(CC)C45CC6CC(CC(C6)C4)C5)CC[C@@H]23)C[C@H]1O` [ADKM3, (25R)-25-(1-Adamantyl)-1a,25-dihydroxy-26-methyl-2-methylidene-23-yne-19,27-dinorvitamin D3], the IC50 at recombinant hVDR-LBD [1] was 6.7 nM; at VDR with NCoR it was 6.3 nM. For the same compound, the “fold lower activity of rapidly eluting epimer than the other 25-epimer” value at recombinant hVDR-LBD [2] is listed as 5–11 fold. For the same compound, the “VDR affinity, % of that of 1,25(OH)2D3” value at recombinant hVDR-LBD [2] turned out to be 6%. Also, the EC50 on VDR with SRC-1 worked out at 10.2 nM; at hVDR (setting [11]) it was 2.33 nM; at hVDR (setting [12]), 2.3 nM; at VDR with RXRα, 1.1 nM. For the same compound, the Transcriptional activity efficacy at hVDR amounted to 90%. The Emax at hVDR (this study) was 90%. The “CYP24A1 expression activity in all cells” value in [3] is 10-50%. Further, the ALP activity in experiment [4] is reported as 40.4%.

For the compound `C=C1[C@H](O)CC(=C/C=C2\CCC[C@]3(C)[C@@H]([C@H](C)CC#C[C@](O)(CC)C45CC6CC(CC(C6)C4)C5)CC[C@@H]23)C[C@H]1O` [ADKM4, (25S)-25-(1-Adamantyl)-1a,25-dihydroxy-26-methyl-2-methylidene-23-yne-19,27-dinorvitamin D3], the IC50 worked out at 1.3 nM at recombinant hVDR-LBD [1] and 0.5 nM at VDR with NCoR. Besides, the “CYP24A1 expression relative to natural hormone 1” value in [5] amounted to 91.5%; in [6], 113%; in experiment [7], 73.3%; in experiment [8], 126%; in experiment [9] it was 85.1%; in experiment [10], 91.9%. Moreover, the “VDR affinity, % of that of 1,25(OH)2D3” value on recombinant hVDR-LBD [2] turned out to be 27%. Also, the EC50 at VDR with SRC-1 came to 1.2 nM; at hVDR (setting [12]), 0.2 nM; on VDR with RXRα, 1.1 nM. Further, on hVDR, the Transcriptional activity efficacy is 104%. Besides, at hVDR (this study), the Emax was 104%. The compound also came in with an ALP activity in experiment [4] of 72.6%.

Broadly, the IC50 is the concentration at which inhibition is half-maximal. Broadly, the EC50 is the midpoint of the concentration-response curve.
